Assay results published in the supplement of paper PMC10307832.

Key:
Assay in all cases: relative viability (nuclei count vs DMSO), 5 days (fraction); higher = more cells survive
[1] = compound: CCn1c(-c2nonc2N)nc2c(C#CC(C)(C)O)ncc(OC[C@H]3CCCNC3)c21 + CS(=O)(=O)N1CCN(Cc2cc3nc(-c4cccc5[nH]ncc45)nc(N4CCOCC4)c3s2)CC1 [Pictilisib] (partner 1 µM)
Outline: (§1)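 Lung cancer cell lines, seeded in 1536-well plates, were treated the following day by pin tool with a single drug or with five library-drug doses (not always all listed) in √10 steps on top of a fixed anchor-drug dose. Cells were fixed and nuclei stained in one step after 5 days, and nuclei were counted. Relative viability is the nuclei count for treated wells divided by that for vehicle wells, reported as medians of duplicate plates.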

[2] = compound: CCn1c(-c2nonc2N)nc2c(C#CC(C)(C)O)ncc(OC[C@H]3CCCNC3)c21 + O=C(CCCCCCC(=O)Nc1ccccc1)NO [Vorinostat] (partner 1 µM)
Outline: as §1

BAM7 + Phenformin = compound: CCOC1=CC=CC=C1N=NC2=C(NN(C2=O)C3=NC(=CS3)C4=CC=CC=C4)C [BAM7] + N=C(N)NC(=N)NCCc1ccccc1 [Phenformin] (partner 250 µM)
Outline: as §1

[3] = compound: CCn1c(-c2nonc2N)nc2c(C#CC(C)(C)O)ncc(OC[C@H]3CCCNC3)c21 + CC(=O)Nc1cccc(-n2c(=O)n(C3CC3)c(=O)c3c(Nc4ccc(I)cc4F)n(C)c(=O)c(C)c32)c1 [Trametinib] (partner 0.02 µM)
Outline: as §1

Row | Cell Line | relative viability ([1]; first compound 0.01 µM) | relative viability ([1]; first compound 0.03162 µM) | relative viability ([1]; first compound 0.1 µM) | relative viability ([1]; first compound 0.3162 µM) | relative viability ([1]; first compound 1 µM) | relative viability ([2]; first compound 0.01 µM) | relative viability ([2]; first compound 0.03162 µM) | relative viability ([2]; first compound 0.1 µM) | relative viability ([2]; first compound 0.3162 µM) | relative viability ([2]; first compound 1 µM) | relative viability (BAM7 + Phenformin; first compound 0.5 µM) | relative viability (BAM7 + Phenformin; first compound 5 µM) | relative viability (BAM7 + Phenformin; first compound 15.81 µM) | relative viability (BAM7 + Phenformin; first compound 50 µM) | relative viability ([3]; first compound 0.01 µM) | relative viability ([3]; first compound 0.03162 µM) | relative viability ([3]; first compound 0.1 µM) | relative viability ([3]; first compound 0.3162 µM) | relative viability ([3]; first compound 1 µM)
1 | 201T | 0.722 | 0.667 | 0.701 | 0.644 | 0.723 | 0.952 | 0.995 | 0.919 | 0.894 | 0.958 | 0.465 | 0.464 | 0.474 | 0.483 | 0.707 | 0.705 | 0.763 | 0.722 | 0.749
2 | A549 | 0.505 | 0.536 | 0.471 | 0.334 | 0.361 |  |  |  |  |  | 0.161 | 0.213 | 0.219 | 0.216 |  |  |  |  | 
3 | A-427 | 0.754 | 0.649 | 0.747 | 0.732 | 0.554 | 0.857 | 0.858 | 0.844 | 0.783 | 0.889 | 0.401 | 0.323 | 0.288 | 0.35 | 0.771 | 0.81 | 0.742 | 0.691 | 0.775
4 | ABC-1 | 0.64 | 0.862 | 0.73 | 0.569 | 0.634 | 1.03 |  | 1.06 | 1.08 | 1.23 | 0.223 | 0.237 | 0.247 | 0.266 |  |  |  |  | 
5 | BEN | 0.565 | 0.584 | 0.489 | 0.574 | 0.596 | 0.635 | 0.617 | 0.569 | 0.56 | 0.667 | 0.257 | 0.248 | 0.286 | 0.294 | 0.973 | 1.25 | 0.986 | 1.03 | 1.12
6 | CAL-12T | 0.327 | 0.374 | 0.351 | 0.306 | 0.329 | 0.747 | 0.679 | 0.683 | 0.675 | 0.603 | 0.576 | 0.601 | 0.586 | 0.607 | 0.303 | 0.388 | 0.322 | 0.317 | 0.297
7 | COR-L23 | 0.794 | 0.759 | 0.727 | 0.705 | 0.674 | 0.433 | 0.558 | 0.437 | 0.368 | 0.387 | 0.411 | 0.5 | 0.443 | 0.424 | 0.625 | 0.565 | 0.486 | 0.382 | 0.373
8 | COR-L 105 | 0.428 | 0.345 | 0.333 | 0.549 | 0.379 | 0.913 | 0.804 | 0.915 | 0.724 | 0.707 | 0.516 | 0.503 | 0.551 | 0.534 | 0.451 | 0.434 | 0.437 | 0.46 | 0.499
9 | Calu-6 | 0.886 | 0.973 | 0.946 | 0.942 | 0.909 |  |  |  |  |  |  |  |  |  |  |  |  |  | 
10 | ChaGo-K-1 | 0.824 | 0.601 | 0.7 | 0.756 | 0.839 | 0.758 | 0.757 | 0.777 | 0.724 | 0.776 | 0.425 | 0.351 | 0.393 | 0.394 | 0.843 | 0.997 | 0.879 | 0.814 | 0.78
11 | EBC-1 | 0.41 | 0.386 | 0.32 | 0.343 | 0.262 |  |  |  |  |  |  |  |  |  |  |  |  |  | 
12 | EKVX | 0.466 | 0.468 | 0.425 | 0.411 | 0.463 | 0.705 | 0.765 | 0.689 | 0.726 | 0.807 | 0.241 | 0.235 | 0.198 | 0.231 | 0.394 | 0.385 | 0.347 | 0.377 | 0.34
13 | EMC-BAC-2 | 0.563 | 0.51 | 0.497 | 0.493 | 0.528 | 0.203 |  | 0.448 | 0.429 | 0.448 | 0.567 | 0.533 | 0.535 | 0.61 | 0.864 |  | 1.08 | 0.848 | 0.913
14 | EPLC-272H | 0.287 | 0.282 | 0.286 | 0.301 | 0.314 | 0.507 | 0.426 | 0.573 | 0.393 | 0.571 | 0.291 |  | 0.322 | 0.281 | 0.324 | 0.284 | 0.252 | 0.217 | 0.315
15 | H3255 | 0.457 | 0.526 | 0.421 | 0.465 | 0.486 | 0.832 | 0.704 | 0.815 | 0.693 | 0.448 | 0.353 | 0.343 | 0.386 | 0.384 | 0.608 | 0.614 | 0.576 | 0.427 | 0.532
16 | HARA | 0.474 | 0.359 | 0.376 | 0.458 | 0.419 | 0.487 | 0.488 | 0.638 | 0.44 | 0.532 | 0.425 | 0.51 | 0.431 | 0.428 | 0.542 | 0.852 | 0.947 | 0.652 | 0.611
17 | HCC-15 | 0.689 | 0.724 | 0.685 | 0.738 | 0.743 | 0.97 | 0.858 | 0.894 | 0.769 | 0.881 | 0.506 | 0.434 | 0.496 | 0.471 | 0.358 | 0.352 | 0.385 | 0.39 | 0.354
18 | HCC-44 | 0.613 | 0.562 | 0.477 | 0.679 | 0.556 | 1.07 | 1.07 | 1.05 | 1.07 | 1.04 | 0.351 | 0.252 | 0.172 | 0.273 | 1.03 | 0.98 | 1.09 | 1.07 | 1.05
19 | HCC-78 | 0.191 | 0.217 | 0.194 | 0.187 | 0.177 | 0.434 | 0.452 | 0.455 | 0.416 | 0.436 | 0.619 | 0.583 | 0.796 | 0.777 | 0.639 | 0.709 | 0.703 | 0.69 | 0.652
